The term pIC50 denotes the negative decadic logarithm of the IC50, by convention in mol/L. A lower pIC50 goes with a high IC50.

Series [1] relates to high affinity rolipram binding form of PDE IV (HPDE IV). The experiment in a line: [3H]-rolipram binding assay (competition for high affinity site). The arrangement: species or system rat. To be noted: for High/Low Ratio (IC50 high affinity form divided by IC50 low affinity form): HPDE IV IC50 / LPDE IV IC50; for pIC50: competition with 1 nM [3H]-rolipram, 1 hour at 30° C. On the procedure:
(§1) Inhibition of PDE IV catalytic activity can thus be used as an index of the potency of compounds at LPDE IV.
The assay was run for 1 hour at 30° C. The reaction was terminated and bound ligand was separated from free ligand using a Brandel cell harvester. Competition for the high affinity binding site was assessed under conditions that were identical to those used for measuring low affinity PDE activity, expect that [^3H]-cAMP was not present.

Series [2] deals with T1, low affinity rolipram binding form of PDE IV (LPDE IV), human monocyte PDE IV (Homo sapiens, UniProt P27815).
T1 construct: made in house; host or cells: yeast
T1 sequence (P27815 1-686 isoform P27815-3): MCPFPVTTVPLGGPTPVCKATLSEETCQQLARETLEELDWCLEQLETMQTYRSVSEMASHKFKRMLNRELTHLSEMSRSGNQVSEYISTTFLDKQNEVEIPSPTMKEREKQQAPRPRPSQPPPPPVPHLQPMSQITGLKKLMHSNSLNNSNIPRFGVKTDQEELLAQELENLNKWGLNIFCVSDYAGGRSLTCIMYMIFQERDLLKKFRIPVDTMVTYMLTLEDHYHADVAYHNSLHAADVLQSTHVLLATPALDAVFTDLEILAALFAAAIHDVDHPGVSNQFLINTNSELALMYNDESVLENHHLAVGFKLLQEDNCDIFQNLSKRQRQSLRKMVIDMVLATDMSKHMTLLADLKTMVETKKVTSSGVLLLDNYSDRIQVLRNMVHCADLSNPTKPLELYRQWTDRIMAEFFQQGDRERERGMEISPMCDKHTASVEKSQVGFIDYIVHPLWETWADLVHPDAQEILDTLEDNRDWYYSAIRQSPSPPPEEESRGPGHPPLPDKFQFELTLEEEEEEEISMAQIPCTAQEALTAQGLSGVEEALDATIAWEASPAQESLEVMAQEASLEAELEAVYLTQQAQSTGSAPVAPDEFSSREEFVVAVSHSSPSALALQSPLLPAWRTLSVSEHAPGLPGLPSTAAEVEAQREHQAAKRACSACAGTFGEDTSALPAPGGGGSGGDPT
Kind of series: PDE IV catalytic activity assay (low affinity form). Format: biochemical. The settings on record: 1 μM [3H]cAMP as substrate.
Description: as §1

For series [3] the following is noted: clinical studies; cited from earlier work.
Series [4] deals with acid secretion. The settings on record: rats, particularly in combination with an activator of adenylate cyclase such as histamine; cited from earlier work.
Series [5] has as its system TNFα production from isolated human monocytes vs acid secretion in isolated rabbit parietal glands. Kind of series: therapeutic index, in vitro comparison: suppression of TNFα production vs stimulation of acid secretion. Format: cell-based. The protocol: To determine acid secretion, the gastric glands in combination with [^14C]-aminopyrine, various concentrations of selective PDE IV inhibitors, and a threshold concentration of histamine (0.3-1.0 μM) were incubated at 37° C. on a horizontal shaker (110 cycles/min) for 20 minutes according to the procedures of Sack and Spenney (1982). Samples were then centrifuged and radioactivity in aliquots of the supernatant fraction and pellet were determined. Aminopyrine ratios were calculated as described by Sack and Spenney (1982). The data were expressed as a percent of a response produced by a maximal concentration of histamine (100 μM). EC50 values were determined by linear interpolation using the maximum response obtained for each compound.
TNFα inhibition was assessed in human peripheral blood monocytes which were purified (Collata) from freshly obtained buffy coats or plasma-phoresis residues of blood from normal human donors. Monocytes were plated at density of 1×10^6 cells/ml medium/well in 24-well multi-dishes. […]
Levels of TNFα were measured using a ELISA (Winston) employing a murine monoclonal anti-human TNFα antibody (see below) as the capture antibody and a polyclonal rabbit anti-human TNFα as the second antibody. […] TNFα levels in samples were calculated from a standard curve generated with recombinant human TNFα produced in E. coli. […]

For series [6], the system named is [3H]-rolipram binding sites in rat brain homogenates. Kind of series: high affinity [3H]-rolipram binding sites in rat brain homogenates (Schneider 1986). To be noted: Kd vs Ki. The text has this:
In 1986, Schneider and colleagues described the presence and characteristics of high affinity, stereoselective [^3H]-rolipram binding sites in rat brain homogenates, Although it was assumed that these binding sites represented the catalytic site of the rat brain “noncalmodulin-dependent, cAMP phosphodiesterase” (i.e. PDE IV), a striking anomaly was apparent in the data.

pIC50: −log10 of the molar value.

For `CCOC(=O)C=C1C[C@@H](c2ccc(OC)c(OC3CCCC3)c2)CN1` [(S)-(-)-ethyl[4-(3-cyclopentyloxy-4-methoxphenyl)pyrrolidine-2-ylidene]acetate], the “High/Low Ratio (IC50 high affinity form divided by IC50 low affinity form)” value in series [1] is on record as “.98”. Moreover, the pIC50 is 6.35 in series [1] and 6.34 in series [2].
Take `COc1cc2c(cc1OC)-c1c/c(=N\c3c(C)cc(C)cc3C)n(C)c(=O)n1CC2` [trequinsin, 2,3,6,7-tetrahydro-2-(mesitylimino)-9,10 dimethoxy-3-methyl-4H-primido[6,1-a]isoquinoline-4-one, reference compound]: in series [1], the pIC50 was 5.30.
`CCCCn1c(=O)c2c(ncn2CC(C)=O)n(CCCC)c1=O` [denbufylline, 7-acetonyl,1,3-dibutylxanthine, reference compound]: in series [1], the pIC50 was 7.30. Besides, the side effects entry in series [3] is “may include pyrosis, nausea and emesis”.
Turning to `CCCCOc1cc(CC2CNC(=O)N2)ccc1OC` (stereo not drawn) [Ro 20-1724], the “effect on acid secretion” value in series [4] was “enhance acid secretion in rats”.
On to `COc1ccc(C2CN(Cc3ccc(N)cc3)C(=O)N2)cc1OC1CCCC1` (stereo not drawn) [1-(4-aminobenzyl)-4-(3-cyclopentyloxy-4-methoxyphenyl)-2-imidazolidinone], for which the “High/Low Ratio (IC50 high affinity form divided by IC50 low affinity form)” value in series [1] was 0.07. Moreover, the pIC50 in series [1] was 8.00; in series [2], 5.85.
The matching figures for `CC(C)Cn1c(=O)n(C)c(=O)c2[nH]cnc21` [IBMX, reference compound]: 0.698, 4.69 and 4.54.
On the same counts, the results for `OCCN(CCO)c1nc(N2CCCCC2)c2nc(N(CCO)CCO)nc(N3CCCCC3)c2n1` [dipyridamole, 2,2′,2″,2′″-[(4,8-dipiperidinopyrimido[5,4-d]pyrimidine-2-6-diyl)dinitrilo]tetraethanol, reference compound] are 6.25, 4.49 and 5.28.
On the same counts, the results for `COc1ccc(C2CCN(Cc3ccc(NC(=NC#N)SC)cc3)C2=O)cc1OC1CCCC1` (stereo not drawn) [3-(cyclopentyloxy-4-methoxyphenyl)-1-(4-N′-[N2-cyano-S-methyl-isothioureido]benzyl)-2-pyrrolidone] are 0.30, 7.52 and 7.00.
In the case of `CCOC(=O)C=C1C[C@H](c2ccc(OC)c(OC3CCCC3)c2)CN1` [(R)-(+)-ethyl [4-(3-cyclopentyloxy-4-methoxyphenyl)pyrrolidine-2-ylidene]acetate], in series [1], the “High/Low Ratio (IC50 high affinity form divided by IC50 low affinity form)” value is reported as 2.143 and the pIC50 is 6.52. Also, the pIC50 in series [2] is 6.85.
`COc1ccc([C@@H]2CC[C@H](C(=O)O)C2)cc1OC1CCCC1` (relative stereo) [cis-[3-(3-cyclopentyloxy-4-methoxyphenyl)cyclopentane-1-carboxylate]] gave a pIC50 in series [2] of 5.57.
For `COc1ccc(CCNC(=O)C(N)=O)cc1OC1CCCC1` [N-[2-(3-cyclopentyloxy-4-methoxyphenyl)ethyl]oxamide], the “High/Low Ratio (IC50 high affinity form divided by IC50 low affinity form)” value in series [1] is given as 0.013. The figures for the negative-log IC50 (pIC50) in series [1] and in series [2] were 7.92 and 6.05, respectively.
For the molecule `COc1ccc(C2CCC(c3nnn[nH]3)C2)cc1OC1CCCC1` (stereo not drawn) [1-(5-tetrazole)-3-(3-cyclopentyloxy-4-methoxyphenyl)cyclopentane], in series [1], the “High/Low Ratio (IC50 high affinity form divided by IC50 low affinity form)” value came out at 0.0018 and the pIC50 was 8.70. The molecule further had a pIC50 in series [2] of 5.96.
Consider `N#CC1(c2ccc(OC(F)F)c(OCC3CC3)c2)CCC(O)CC1` (stereo not drawn) [cis-[4-cyano-4-(3-cyclopropylmethoxy-4-difluoromethoxyphenyl)cyclohexan-1-ol]], for which the pIC50 in series [1] was 7.40; in series [2], 7.68. Further, in series [5], the “improvement in therapeutic index in comparison with R-rolipram” value was found to be 100 fold.
Take `COc1ccc(C2CNC(=O)C2)cc1OC1CCCC1` (stereo not drawn) [rolipram]: in series [4], the “effect on acid secretion” value is “enhance acid secretion in rats”. In addition, the “difference in affinity for the binding site versus effect on catalytic activity” value in series [6] is listed as 1000 fold. In addition, the side effects result in series [3] was “has psychotropic activity and produces gastrointestinal effects, e.g., pyrosis, nausea and emesis”.
Take `COC(=O)C1CC(C#N)(c2ccc(OC(F)F)c(OCC3CC3)c2)CCC1=O` (stereo not drawn) [2-carbomethoxy-4-cyano-4-(3-cyclopropylmethoxy-4-difluoromethoxyphenyl)cyclohexan-1-one]: in series [1], the “High/Low Ratio (IC50 high affinity form divided by IC50 low affinity form)” value amounted to 3.571 and the pIC50 was 6.30. Further, the “improvement in therapeutic index in comparison with R-rolipram” value in series [5] stood at 100 fold. In series [2], this molecule had a pIC50 of 6.85.

The record behind these values is US20020115111A1, “Compounds” (SmithKline Beecham Corporation, priority 1994, published 2002).
